Measured values: patent publication US8618151B2, “Inhibitors of HCV NS5A” (Presidio Pharmaceuticals, Inc., priority 2008, dated 2013)

test system: HCV genotype 1b replicon; assay: HCV replicon assay (1b_Huh-Luc/Neo-ET cell line, luciferase readout); format: cell-based; details: Hepatitis C virus, Huh-7, 72 h, read-out: Inhibition of HCV genotype 1b
In short: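 1b_Huh-Luc/Neo-ET Huh 7 cells carrying a bicistronic genotype 1b replicon; compounds added in triplicate the day after plating, 72 h incubation, then Bright-Glo luciferase read-out. Signal expressed as % of control; EC50 from curve fit, repeated several times.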

Structure (SMILES) | EC50 [nM]
COC(=O)N[C@H](C(=O)N1CCC[C@H]1c1ncc(-c2ccc3cc(-c4ccc5nc([C@@H]6CCCN6C(=O)[C@@H](NC(=O)OC)C6CCOCC6)[nH]c5c4)ccc3c2)[nH]1)C1CCOCC1 [compound 203] | < 1
COC(=O)N[C@H](C(=O)N1CCC[C@H]1c1nc(-c2cnc3cc(-c4ccc(-c5cnc([C@@H]6CCCN6C(=O)[C@H](NC(=O)OC6CCOCC6)c6ccccc6)[nH]5)cc4)ccc3c2)c[nH]1)C1CCOCC1 [compound 89] | < 1
COC(=O)N[C@@H](C)C(=O)N1CCC[C@H]1c1nc(-c2ccc3c(c2)CCN(c2c(F)cc(-c4cnc([C@@H]5CCCN5C(=O)[C@H](C)NC(=O)OC)[nH]4)cc2F)C3)c[nH]1 [compound 272] | < 1
COC(=O)N[C@H](C(=O)N1CCC[C@H]1c1ncc(-c2ccc(-c3ccc4cc(-c5cnc([C@@H]6CCCN6C(=O)[C@H](NC(=O)OC6CCOCC6)c6ccccc6)[nH]5)ccc4n3)cc2F)[nH]1)C(C)C [compound 125] | < 1
COC(=O)N[C@H](C(=O)N1CCC[C@H]1c1ncc(-c2ccc(-c3ccc4cc(-c5c[nH]c([C@@H]6CCCN6C(=O)[C@H](NC(=O)OC)c6ccccc6)n5)ccc4c3)nc2)[nH]1)C(C)C [compound 48] | < 1
CNC(=O)N[C@@H](C(=O)N1CCC[C@H]1c1ncc(-c2ccc(-c3ccc4cc(-c5c[nH]c([C@@H]6CCCN6C(=O)[C@@H](NC(=O)OC)C(C)C)n5)ccc4n3)cc2)[nH]1)c1ccccc1 [compound 31] | < 1
COC(=O)N[C@H](C(=O)N1CCC[C@H]1c1nc(-c2ccc3nc(N4CCC(c5cnc([C@@H]6CCCN6C(=O)[C@@H](NC(=O)OC)C(C)C)[nH]5)CC4)ccc3c2)c[nH]1)C(C)C [compound 275] | < 1
COC(=O)N[C@H](C(=O)N1CCC[C@H]1c1ncc(-c2ccc(-c3ccc4cc(-c5cnc([C@@H]6CCCN6C(=O)[C@H](NC(=O)OC)c6ccccc6)[nH]5)ccc4n3)c(F)c2)[nH]1)C(C)C [compound 119] | < 1
COC(=O)N[C@H](C(=O)N1C[C@H](O)C[C@H]1c1ncc(-c2ccc(-c3ccc4cc(-c5cnc([C@@H]6CCCN6C(=O)[C@H](NC(=O)OC)c6ccccc6)[nH]5)ccc4n3)cc2)[nH]1)C(C)C [compound 148] | < 1
COC(=O)N[C@@H](C(=O)N1CCC[C@H]1c1nc(-c2ccc3[nH]c(-c4ccc(-c5cnc([C@@H]6CCCN6C(=O)[C@H](NC(=O)OC)c6ccccc6)[nH]5)cc4)cc(=O)c3c2)c[nH]1)c1ccccc1 [compound 77] | 10 to 999
COC(=O)N[C@H](C(=O)N1CCC[C@H]1c1nc(-c2cnc3cc(-c4ccc(-c5cnc([C@@H]6CCCN6C(=O)[C@@H](NC(=O)OC)C(C)C)[nH]5)nc4)ccc3c2)c[nH]1)C(C)C [compound 93] | < 1
COC(=O)N[C@H](C(=O)N1CCC[C@H]1c1ncc(-c2ccc3cc(-c4ccc(-c5cnc([C@@H]6COCCN6C(=O)[C@H](NC(=O)OC)c6ccccc6)[nH]5)cc4)ccc3c2)[nH]1)C(C)C [compound 131] | < 1
COC(=O)N[C@H](C(=O)N1CCC[C@H]1c1ncc(-c2ccc3nc(-c4ccc5nc([C@@H]6CCCN6C(=O)[C@H](NC(=O)OC)c6ccccc6)[nH]c5c4)ccc3c2)[nH]1)C(C)C [compound 197] | < 1
COC(=O)N[C@H](C(=O)N1CCC[C@H]1c1nc(-c2ccc3cc(-c4ccc(-c5cnc([C@@H]6CCCN6C(=O)[C@H](NC(=O)OC)c6ccccc6)[nH]5)cc4C)ccc3c2)c[nH]1)C(C)C [compound 69] | < 1
COC(=O)N[C@H](C(=O)N1CCC[C@H]1c1nc(-c2ccc3cc(-c4ccc(-c5cnc([C@@H]6CCCN6C(=O)[C@H](NC(=O)OC)c6ccccc6)[nH]5)nc4)ccc3c2)c[nH]1)C(C)C [compound 63] | < 1
COC(=O)N[C@H](C(=O)N1CCC[C@H]1c1ncc(-c2ccc(-c3ccc4cc(-c5c[nH]c([C@@H]6CCCN6C(=O)[C@H](NC(=O)NC6CC6)c6ccccc6)n5)ccc4c3)cc2)[nH]1)C(C)C [compound 29] | < 1
COC(=O)N[C@H](C(=O)N1CCC[C@H]1c1ncc(-c2ccc3oc(-c4ccc(-c5cnc([C@@H]6CCCN6C(=O)[C@H](NC(=O)OC)c6ccccc6)[nH]5)cc4)nc3c2)[nH]1)C(C)C [compound 260] | < 1
